Measured values taken from US20240376098A1, “METHODS OF TREATMENT USING BCN057, BCN077 AND ANALOGS” (BCN Biosciences L.L.C., priority 2021, published 2024).

Legend:
[1] = system: irradiated mouse T-lymphocytes; test: In vitro viability assay on irradiated T-lymphocytes; assay type: cell-based; details: T-lymphocyte
Procedure: FIG. 7A is a western blot showing PD-1 expression on human T-lymphocytes co-cultured with Panc-1 cells with no drug (vehicle) or 1, 6 and 12 hours with BCN057. FIG. 7B is a graph showing that the inhibition of GSK3b induces survival of Lymphocytes when exposed to radiation.
FIG. 8 is western blot showing PDL-1 expression (red arrow) on Panc-1 cells co cultured with human T-lymphocytes with no drug (vehicle) or 2.5, 5, 7.5 and 10 hrs. with BCN057. […] In a separate study using mouse T-lymphocytes, 2Gy radiation was used to induce apoptosis with increasing amounts of BCN057.

[2] = system: Panc-1 cells; test: RealTime-Glo Annexin V Apoptosis and Necrosis Assay; assay type: cell-based, human; details: serial dilutions, 10 minutes to 6 hours
Procedure: To validate the involvement of apoptosis in BCN057 induced cell death, the Panc1 cells with/without BCN057 were subjected to Anexin V staining. Anexin V staining was performed up to 6 hours and measured as a function of dose response of BCN057. […] FIG. 2B is a graph of Annexin V Apoptosis and Necrosis Assay in Panc-1 cells. Panc-1 cells were exposed to serial dilutions of BCN057 in the presence or absence of the RealTime-Glo™ Annexin V Apoptosis and Necrosis Assay Reagent. The plate was incubated at 37° C./5% CO2 and luminescence (Annexin V binding) was measured over a period of six hours. […] Apoptosis appeared to increase with increasing concentrations of BCN057.

[3] = target: T1, GSK3b in non-transformed cell types such as HEK298 (Homo sapiens, UniProt P49841); test: GSK3b inhibition in non-transformed cells; assay type: cell-based
T1 construct: endogenous in cells; host or cells: HEK298 (so in the source)
T1 sequence (P49841 whole entry): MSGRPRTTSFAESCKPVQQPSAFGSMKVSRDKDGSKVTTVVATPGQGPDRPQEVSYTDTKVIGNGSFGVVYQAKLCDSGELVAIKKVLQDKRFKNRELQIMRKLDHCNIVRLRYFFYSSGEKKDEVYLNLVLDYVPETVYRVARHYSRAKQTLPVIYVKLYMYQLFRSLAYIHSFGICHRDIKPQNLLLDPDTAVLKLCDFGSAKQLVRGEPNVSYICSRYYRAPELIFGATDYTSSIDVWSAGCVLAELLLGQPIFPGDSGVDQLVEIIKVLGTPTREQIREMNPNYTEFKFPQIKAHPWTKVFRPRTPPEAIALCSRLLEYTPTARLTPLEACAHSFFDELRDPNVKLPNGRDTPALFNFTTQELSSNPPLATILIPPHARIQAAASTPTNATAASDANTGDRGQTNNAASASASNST
Procedure: To investigate the role BCN057 may have in the restoration of apoptosis in this cell line, the GSK3b-c-Jun relationship was assessed as it has been directly linked to apoptosis. Others have reported a link with GSK3b and c-Jun and apoptosis along with the fact that […] is over expressed in the oncogenic KRAS phenotype.

[4] = system: PD-1 expression on human T-lymphocytes; test: Western blot of PD-1 on T-lymphocytes co-cultured with Panc-1 cells; assay type: cell-based; details: co-culture with Panc-1, 10 μM, sustained over 12 hours
Procedure: Cell lines and cell culture: Panc-1 cells were cultured in DMEM medium supplemented with 10% Fetal Bovine Serum and maintained at 37° C.5% CO2. Human Peripheral Blood Pan-T Cells were cultured in serum free T cells expansion media with 10 ng/ml of rhIL-2, T-cell activator and expanded as per the manufacturer instructions. Panc-1 cells and T-Cells were grown and expanded separately in T75 flasks. For co-culture experiments with Panc-1 cell, 2.5 million T-cells per well were plated in the well using a 6 well plate. 2.5 million Panc-1 Cells were plated in the thinsert which was placed into the well of the 6 well plate in order to have the cells physically separated but share media. The cells were incubated for 24 hours at 37° C., 5% CO2. At 24 hours the media was replaced with media containing vehicle, or 10 uM BCN057 and were incubated for the following timepoints: 1 hr, 6 hr, 12 hr, 24 hrs. The Panc-1 cells were removed by gently scraping the cells from the thinsert.
Western Blot: Cells were harvested and lysed in cell lysis buffer on ice for 15 minutes and the lysate was centrifuged at 13,000 rpm at 4° C. for 10 minutes. The supernatant was transferred into a new tube for BCA protein quantification assay (Thermo Fisher Scientific) and the samples were normalized. 3× loading buffer (Cell Signaling) was added the protein sample and boiled for 5 minutes. The samples were used for SDS-PAGE analysis and transferred to nitrocellulose membrane. The membrane was blocked with 5% BSA at room temperature for 1 hour and incubated with primary antibody at 4° C. overnight. The membrane was washed with 1×TBST 5 minutes for 3 times and incubated with horseradish peroxidase-conjugated secondary antibody for 1 hour at room temperature. The protein was visualized by SuperSignal West Pico Stable Peroxide Solution (Thermo Fisher Scientific). The blot was visualized by chemiluminescence using a BioRad Versadoc Imaging System.
BCN057 and Immune Checkpoint blockade: An emerging method of treatment for many forms of cancer, including PDAC, is immune checkpoint inhibitors. […]

COc1ccc2cc(-c3nc4ccc(C)cn4c3NCc3ccco3)c(=O)[nH]c2c1 [BCN057, 3-[(Furan-2-ylmethyl)-amino]-2-(7-methoxy-2-oxo-1,2-dihydro-quinolin-3-yl)-6-methyl-imidazo[1,2-a]pyridin-1-ium]
EC50 ([1]; light or radiation study, viability of irradiated mouse T-lymphocytes): 5.34 µM
EC50 ([1]; preservation of mouse T-lymphocytes, 2Gy radiation): 5.34 µM
Apoptosis (Annexin V binding, luminescence) [2]: Dose and time dependent increase in apoptosis
GSK3b inhibition [3]: inhibition was noted
PD-1 expression on human T-lymphocytes [4]: decreased significantly within the first hour
